Measurements from US10894042B2, “Methods and pharmaceutical compositions for the treatment of cancer” (INSERM (INSTITUT NATIONAL DE LA SANTÉ ET DE LA RECHERCHE …, priority 2014, dated 2021).
Where no end group is shown, it is not given here.

Tests used:
[1] = test system: human colon cancer cells (LoVo cells); test: Growth of tumors from human colon cancer cell xenografts in nude mice; assay type: in vivo; conditions: for tumor growth versus PBS control mice: LoVo xenograft in nude mice, 100 μg intraperitoneally 2 times/week, 48 days of treatment
Protocol: FIG. 4: Effect of ip inoculation of OxA (▴), Suvorexant (◯) and Almorexant (Δ) on the growth of tumors developed by xenografting human colon cancer cells in nude mice. A. LoVo cells were inoculated in the flank of nude mice at day 0. Mice were injected 2 times/week intraperitoneally with 100 μg of OxA, Suvorexant or Almorexant in 100 μl solutions or with 100 μl of PBS (●) for controls. After 48 days of treatment, mice were sacrificed and tumor volume and weight were then recorded. The development of tumors was followed by caliper measurement. B. treatment (2 injections/week) with various doses of Almorexant (1 mg/kg (□), 2.5 mg/kg (Δ) or 5 mg/kg (◯)) compared to OxA treatment (5 mg/kg, ▴). Control was performed by injection of 100 μl PBS (●).
The inventors investigated the effect of intraperitoneal inoculation of OxA, Suvorexant and Almorexant on the growth of tumors developed by xenografting human colon cancer cells (LoVo cells) in nude mice.

OX1R = target: T1, OX1R (Homo sapiens, UniProt O43613); test: Ca2+ mobilization assay in HEK-OX1R cells (FluoForte); assay type: cell-based
T1 construct: HEK cells expressing recombinant native OX1R (HEK-OX1R) cells were seeded in 96-wells plate; expressed in transfected cells; host or cells: HEK cells (HEK-OX1R)
T1 sequence (O43613 1-425): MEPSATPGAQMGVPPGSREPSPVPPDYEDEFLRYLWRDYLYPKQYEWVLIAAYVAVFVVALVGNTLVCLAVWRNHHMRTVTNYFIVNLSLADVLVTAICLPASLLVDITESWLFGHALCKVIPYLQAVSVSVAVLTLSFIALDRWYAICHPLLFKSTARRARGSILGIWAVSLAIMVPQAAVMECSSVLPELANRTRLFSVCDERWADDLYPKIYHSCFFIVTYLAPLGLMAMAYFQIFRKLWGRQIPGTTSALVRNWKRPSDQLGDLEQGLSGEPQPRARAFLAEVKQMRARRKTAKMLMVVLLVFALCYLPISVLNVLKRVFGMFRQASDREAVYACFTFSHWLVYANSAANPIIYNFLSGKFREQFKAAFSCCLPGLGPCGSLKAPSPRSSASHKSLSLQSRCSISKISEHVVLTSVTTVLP
Protocol: FIG. 1: Effect of orexin-A and SB408124 antagonist on Ca2+ mobilization in HEK-OX1R cells. Top, HEK-OX1R cells were incubated with fluorescence probe (FluoForte) for 45 min. at 37° C. according to FluoForte calcium assay kit (Enzo Life Sciences). 1 μM of OxA was added to cells and fluorescence emission was measured on TECAN Infinite 200 fluorospectrophotometer. Bottom, HEK-OX1R cells were incubated with fluorescence probe (FluoForte) for 45 min. at 37° C. and then incubated with 1 μM of SB408124 for 1 h at 37° C. After pre-incubation, 1 μM of OxA was added to cells and fluorescence emission was measured.
HEK cells expressing recombinant native OX1R (HEK-OX1R) cells were seeded in 96-wells plate, grown and maintained at 37° C. in a humidified 5% CO2/air incubator. 80,000 cells/well were incubated with FluoForte probe according to FluoForte calcium assay kit (ENZO life Sciences, Farmingdale, N.Y., USA) for 45 min. at 37° C. and then incubated with or without 1 μM of SB408124 antagonist for 1 h at 37° C. After pre-incubation, 1 μM of OxA was added and fluorescence was determined using TECAN Infinite 200 fluorospectrophotometer.

HEK-OX1R cells = test: Cell growth determination, HEK-OX1R cells; assay type: cell-based; conditions: 48 hr incubation, viable cells counted, OxA 0.1 μM, SB408124 increasing concentrations
Protocol: (§1) FIG. 2: Determination of the inhibition of cellular growth of HEK-OX1R cells and colon adenocarcinoma cells (HT-29) induced by […] of OxA or various concentrations of SB408124 antagonist. HEK-OX1R cells (black column) and HT-29 cells (white column) were incubated with 0.1 μM of OxA and indicated increasing concentration of SB408124, and cells were counted after 48 hr incubation. Results are expressed as the percentage of total viable cells.
(§2) HEK-OX1R cells or colon adenocarcinoma HT-29 cells were seeded, grown and maintained at 37° C. in a humidified 5% CO2/air incubator. After 24 hr culture, cells were treated with or without Orexin-A peptide or SB408124 antagonist, previously dissolved in DMSO, to be tested at the concentration indicated in the figure legends. After 48 hr of treatment, adherent cells were harvested by TriplE (Life Technologies, Saint Aubin, France) and manually counted. Apoptosis was determined using the Guava PCA system and the Guava nexin kit.

[2] = test system: colon adenocarcinoma HT-29 cells; test: Cell growth determination, HT-29 cells; assay type: cell-based; conditions: 48 hr incubation, viable cells counted, OxA 0.1 μM, SB408124 increasing concentrations
Protocol: as §1, §2

[3] = test system: OX1R expressing colon adenocarcinoma cells, HT-29; test: Apoptosis assay (annexin V-PE binding, Guava nexin kit), HT-29 cells; assay type: cell-based; conditions: for apoptosis (annexin V-PE binding): HT-29 cells, 48 h, 1 μM orexin-A or various concentrations of SB408124
Protocol: FIG. 3: Effect of orexin-A and SB408124 antagonist on apoptosis in OX1R expressing colon adenocarcinoma cells, HT-29. HT-29 cells were challenged with 1 μM orexin-A or various concentration of SB408124 for 48 h. Apoptosis was measured by determination of annexin V-PE binding, and results are expressed as the percentage of apoptotic cells. Results are means±SE of three experiments. ***P<0.001.
as §2

| Compound | tumor growth versus PBS control mice [1] | agonist/antagonist character for OX1R-mediated calcium mobilization (OX1R) | effect on OxA-induced Ca2+ mobilization (OX1R; preincubation with 1 μM SB408124 for 1 h at 37° C., then 1 μM OxA) | inhibition of cellular growth (HEK-OX1R cells) | inhibition of cellular growth [2] | apoptosis (annexin V-PE binding) [3] | agonist/antagonist character for OX1R-mediated mitochondrial apoptosis ([3]; colon cancer cell line) | Ca2+ mobilization (OX1R; 1 μM OxA, fluorescence (FluoForte)) | tumor growth inhibition, dose dependence ([1]; LoVo xenograft in nude mice, 1, 2.5 or 5 mg/kg, 2 injections/week) |
| --- | --- | --- | --- | --- | --- | --- | --- | --- | --- |
| Cc1ccc(-n2nccn2)c(C(=O)N2CCN(c3nc4cc(Cl)ccc4o3)CC[C@H]2C)c1 [Suvorexant] | significantly smaller tumors |  |  |  |  |  |  |  |  |
| Cc1cc(NC(=O)Nc2ccc(N(C)C)cc2)c2cc(F)cc(F)c2n1 [SB408124] |  | full antagonist | totally abolished | strong inhibition in a dose-dependent manner | strong inhibition in a dose-dependent manner | induce in a dose-dependent manner cell apoptosis | full agonist |  |  |
| OxA: orexin A, a 33 amino acid neuropeptide, the natural OX1R agonist (QPLPDCCRQKTCSCRLYELLHGAGNHAAGILTL; ends and bridges not checked; cysteine pairing not given here; UniProt O43612 34-66, looked up) | significantly smaller tumors |  |  | strong inhibition | strong inhibition | induced an apoptotic effect |  | large and transient |  |
| CNC(=O)[C@@H](c1ccccc1)N1CCc2cc(OC)c(OC)cc2[C@@H]1CCc1ccc(C(F)(F)F)cc1 [Almorexant] | significantly smaller tumors |  |  |  |  |  |  |  | induce in a dose-dependent manner tumor growth inhibition |
